From patent publication US20130096012A1, “METHOD AND KIT FOR IDENTIFYING A TRANSLATION INITIATION SITE ON AN MRNA” (CORNELL UNIVERSITY, priority 2011, published 2013)

Key:
HEK293 cells [1] = assay: Polysome profiling by sucrose gradient sedimentation of drug-treated cells; assay type: cell-based, Human; conditions: 100 μM CHX or 50 μM LTM, 30 min, compared to no-drug treatment (DMSO), FIG. 7
Protocol: FIG. 7 is a series of graphs showing polysome profile analysis in cells treated with ribosome E-site translation inhibitors. In particular, HEK293 cells were pre-treated with equal volume of DMSO, 100 μM CHX, or 50 μM LTM for 30 min followed by sucrose gradient sedimentation. Both 80S monosome and polysome peaks are indicated.
HEK293 or MEF cells were treated with 100 μM CHX, 50 μM LTM, 2 μg/ml harringtonine or DMSO at 37° C. for 30 min. Cells were lysed in polysome buffer and cleared lysates were separated by sedimentation through sucrose gradients. Collected polysome fractions were digested with RNase I and the RPF fragments were size selected and purified by gel extraction. […] The trimmed RPF reads with final lengths of 26-29 nt were aligned to the RefSeq transcript sequences by Bowtie-0.12.7 allowing one mismatch. A TIS position on individual transcript was called if the normalized LTM reads density at the every nucleotide position subtracting with that of CHX was well above the background. In analysis of non-coding RNA, only reads unique to single ncRNA were used. […]
Sucrose solution was prepared in polysome buffer (pH 7.4, 10 mM HEPES, 100 mM KCl, 5 mM MgCl2). […] Separated samples were fractionated at 0.750 ml/min through a fractionation system (Isco) that continually monitored OD254 values. […]

HEK293 cells [2] = assay: Ribosome profiling (deep sequencing of ribosome-protected mRNA fragments, GTI-seq) of drug-treated cells; assay type: cell-based, Human; conditions: 30 min, FIG. 1C; for distribution of RPF reads relative to the annotated start codon: 100 μM CHX, 50 μM LTM or 2 μg/ml harringtonine, metagene analysis, 1D
Description: FIGS. 1A-D show the experimental strategy of GTI-seq using ribosome E-site translation inhibitors. Specifically, FIG. 1A is a schematic diagram of the experimental design for GTI-seq. Translation inhibitors cycloheximide (“CHX”) and lactimidomycin (“LTM”) bind to the ribosome E-site, resulting in inhibition of translocation. While CHX binds to all translating ribosomes (FIG. 1A, left panel), LTM preferably incorporates into the initiating ribosomes when the E-site is free of tRNA (FIG. 1A, right panel). FIG. 1B is a schematic illustration showing ribosome profiling using CHX and LTM side-by-side, which allows distinguishing the initiating ribosome from the elongating one. FIG. 1C is a graph showing data related to HEK293 cells being treated with either DMSO, 100 μM CHX, or 50 μM LTM for 30 min before ribosome profiling. Normalized RPF reads were averaged across the entire transcriptome, aligned at either their start site or stop codon. FIG. 1D presents two graphs showing metagene analysis of RPFs obtained from HEK293 cells treated with either harringtonine (FIG. 1D, left panel) or LTM (FIG. 1D, right panel). All mapped reads were aligned at the annotated start codon AUG, and the reads density at each nucleotide position was averaged using the P-site of RPFs.
HEK293 or MEF cells were treated with 100 μM CHX, 50 μM LTM, 2 μg/ml harringtonine or DMSO at 37° C. for 30 min. Cells were lysed in polysome buffer and cleared lysates were separated by sedimentation through sucrose gradients. Collected polysome fractions were digested with RNase I and the RPF fragments were size selected and purified by gel extraction. After the construction of sequencing library from these fragments, deep sequencing was performed using IlluminaHiSEQ. The trimmed RPF reads with final lengths of 26-29 nt were aligned to the RefSeq transcript sequences by Bowtie-0.12.7 allowing one mismatch. A TIS position on individual transcript was called if the normalized LTM reads density at the every nucleotide position subtracting with that of CHX was well above the background. In analysis of non-coding RNA, only reads unique to single ncRNA were used. To experimentally validate the identified TIS codons, specific genes encompassing both the 5′UTR and the CDS were amplified by RT-PCR from total cellular RNAs extracted from HEK293 cells. The resultant cDNAs were cloned into pcDNA3.1 containing c-myc tag at the COOH-terminus. After transfection into HEK293 cells, whole cell lysates were used for immunoblotting using anti-myc antibody.
Human HEK293 and mouse embryonic fibroblast (“MEF”) were maintained in Dulbecco's Modified Eagle's Medium (“DMEM”) with 10% fetal bovine serum (“FBS”). Cycloheximide was purchased from Sigma and harringtonine from LKT Laboratories. […]

## C/C(=C\[C@H](C)C(=O)C[C@H](O)CC1CC(=O)NC(=O)C1)[C@@H]1OC(=O)/C=C/CC/C=C/C=C\[C@@H]1C [LTM, lactimidomycin]
HEK293 cells [1]
  effect on polysome profile (80S monosome and polysome peaks): large increase in monosome accompanied by a depletion of polysomes
HEK293 cells [2]; 50 μM LTM, versus untreated cells or CHX
  effect on ribosome (RPF) density at the stop codon: eliminated the excess of ribosomes seen at the stop codon
HEK293 cells [2]
  distribution of RPF reads relative to the annotated start codon: pronounced single peak located at the −12 nucleotide (nt) position relative to the annotated start codon

## COC(=O)C[C@](O)(CCC(C)(C)O)C(=O)O[C@@H]1C(OC)=C[C@]23CCCN2CCc2cc4c(cc2[C@H]13)OCO4 [harringtonine]
HEK293 cells [2]
  distribution of RPF reads relative to the annotated start codon: a substantial fraction of RPFs accumulated in regions downstream of the start codon

## C[C@@H]1C[C@@H]([C@H](O)CC2CC(=O)NC(=O)C2)C(=O)[C@@H](C)C1 [CHX, cycloheximide]
HEK293 cells [1]
  effect on polysome profile (80S monosome and polysome peaks): slightly stabilized the polysomes
HEK293 cells [2]
  distribution of RPF reads relative to the annotated start codon: an excess of RPFs at the beginning of ORFs in addition to the body of CDS
